Data published in patent US6822100B2 (Bristol-Myers Squibb Company, priority 2001, dated 2004).

Assays:
[1] = target: T1, human serotonin transporters (Homo sapiens, UniProt P31645); test: Serotonin Transporter Binding Assay; details: HEK-hSERT cell membranes, 1 nM [3H]-citalopram, Cheng and Prusoff; read-out: SERT Ki
T1 construct: expressed in transfected cells; host or cells: HEK-293 (HEK-hSERT), membrane homogenates
Protocol: HEK-293 cells that stably express human serotonin transporters (HEK-hSERT cells) were grown at 37° C. in 5% CO2 as a monolayer in medium consisting of EMEM supplemented with 10% fetal bovine serum and G418 sulfate (500 μg/ml). To prepare membranes for radioligand binding experiments, cells were rinsed twice with phosphate-buffered saline (138 mM NaCl, 4.1 mM KCl, 5.1 mM Na2PO4, 1.5 mM […], 11.1 mM glucose, pH 7.4). Cells were transferred from plates to polypropylene tubes (16×100 mm), centrifuged at 1,200×g for 5 min and were frozen at −80° C. until assay. Following centrifugation, pellets were resuspended by homogenization in buffer consisting of 50 mM Tris (pH 7.7 at 25° C.), 120 mM NaCl and 5 mM KCl and then centrifuged at 32,000×g for 10 min. Following centrifugation, supernatants were discarded and pellets were resuspended in buffer consisting of 50 mM Tris (pH 7.4 at 25° C.), 150 mM NaCl and 5 mM KCl. Membrane homogenates (200 μl/plate) were incubated with 1 nM [^3H]-citalopram (specific activity=85 Ci/mmol) and increasing concentrations of test compounds for 1 hr at 25° C. in a total volume of 250 μl. The assay buffer consisted of 50 mM Tris (pH 7.4 at 25° C.), 120 mM NaCl and 5 mM KCl (pH 7.4 with conc. HCl). Plates were incubated for 1 hr at 25° C., then filtered through 0.5% PEI treated Whatman GF/B filters using a Brandel cell harvester. Filters were washed three times with 3 ml of ice-cold tris wash buffer. Non-specific binding was defined with 10 μM fluoxetine. Amount of radioligand bound in the presence and absence of competitor was analyzed by plotting (−)log drug concentration versus the amount of radioligand specifically bound. The midpoint of the displacement curve (IC50, nM), signifies the potency. Ki values were calculated using the method of Cheng and Prusoff (1973).

[2] = target: T2, recombinant human dopamine D2L receptors (Homo sapiens, UniProt P14416); test: Dopamine Binding Assay; details: HEK-D2L cell membranes, 150 pM [3H]-spiperone, Cheng and Prusoff
T2 construct: expressed in transfected cells; host or cells: HEK-293 (HEK-D2L), membrane homogenates
Protocol: HEK-293 cells that stably express recombinant human dopamine D2L receptors (HEK-D2L cells) were grown at 37° C. in 5% CO2 as a monolayer in medium consisting of EMEM supplemented with 10% fetal bovine serum and G418 sulfate (500 μg/ml). To prepare membranes for radioligand binding experiments, cells were rinsed twice with phosphate-buffered saline (138 mM NaCl, 4.1 mM KCl, 5.1 mM Na2PO4, 1.5 mM KH2PO2 11.1 mM glucose, pH 7.4), and incubated for 5-10 min. at 4° C. in hypotonic lysis buffer consisting of 10 mM Tris (pH 7.4) and 5 mM EDTA. Cells were transferred from plates to polypropylene tubes (16×100 mm), homogenized and centrifuged at 32,000×g for 20 min. Following centrifugation, pellets were resuspended by homogenization in buffer consisting of 50 mM Tris (pH 7.7 at 25° C.) and 1 mM EDTA. Homogenates were stored at −80° C. until needed. On the day of an experiment, homogenates were thawed then centrifuged at 32,000×g for 20 min. Following centrifugation, supernatants were discarded and pellets were resuspended in assay buffer consisting of 50 mM Tris (pH 7.4 at 25° C.), 1 mM EDTA and 6 mM MgCl2. Membrane homogenates (˜5 μg) were incubated with 150 pM [^3H]-spiperone (Amersham Life Science) and increasing concentrations of test compounds for 1.5 hr at 22° C. in a total volume of 400 μl. Reactions were stopped by addition of ice-cold assay buffer and filtration over glass fiber filters (Whatman GFB, pre-soaked in 0.05% polyethylenimine) using a microtitre format Brandel cell harvester. Filters were washed with 3 ml of ice-cold assay buffer. Non-specific binding was defined with 2 μM (+)butaclamol. Ki values were calculated using the method of Cheng and Prusoff (1973). Protein concentrations were determined by the method of Bradford (1976) with BSA as a standard.

T1 sequence (P31645 whole entry): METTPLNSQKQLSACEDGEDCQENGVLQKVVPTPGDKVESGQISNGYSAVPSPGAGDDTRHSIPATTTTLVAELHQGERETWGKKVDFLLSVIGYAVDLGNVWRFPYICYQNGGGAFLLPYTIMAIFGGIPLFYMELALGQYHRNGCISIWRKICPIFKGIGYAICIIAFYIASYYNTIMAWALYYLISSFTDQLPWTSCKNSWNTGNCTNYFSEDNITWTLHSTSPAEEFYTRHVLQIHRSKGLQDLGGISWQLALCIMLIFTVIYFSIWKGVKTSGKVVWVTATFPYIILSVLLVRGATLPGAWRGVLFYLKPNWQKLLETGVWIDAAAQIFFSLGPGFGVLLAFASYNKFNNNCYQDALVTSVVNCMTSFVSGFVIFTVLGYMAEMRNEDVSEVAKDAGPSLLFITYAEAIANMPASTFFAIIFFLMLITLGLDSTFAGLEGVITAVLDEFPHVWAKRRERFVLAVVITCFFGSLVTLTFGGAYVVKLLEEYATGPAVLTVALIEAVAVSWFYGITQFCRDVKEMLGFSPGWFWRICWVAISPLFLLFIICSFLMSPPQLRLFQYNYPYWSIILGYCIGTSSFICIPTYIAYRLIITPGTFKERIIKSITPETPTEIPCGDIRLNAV
T2 sequence (P14416 whole entry): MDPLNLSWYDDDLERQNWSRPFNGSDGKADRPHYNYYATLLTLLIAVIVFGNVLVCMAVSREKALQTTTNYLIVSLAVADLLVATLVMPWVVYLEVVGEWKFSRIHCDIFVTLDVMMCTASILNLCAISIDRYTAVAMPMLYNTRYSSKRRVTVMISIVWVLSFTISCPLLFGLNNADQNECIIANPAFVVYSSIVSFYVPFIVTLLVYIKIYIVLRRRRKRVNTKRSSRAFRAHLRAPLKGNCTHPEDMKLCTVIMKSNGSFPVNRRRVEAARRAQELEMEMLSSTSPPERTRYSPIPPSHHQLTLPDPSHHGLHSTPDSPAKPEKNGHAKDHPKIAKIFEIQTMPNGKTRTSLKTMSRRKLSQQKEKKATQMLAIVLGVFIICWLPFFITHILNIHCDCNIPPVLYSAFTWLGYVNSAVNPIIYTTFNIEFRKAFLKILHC

In the case of `COc1ccccc1CNC[C@@H]1C[C@H]1c1c[nH]c2ccc(C#N)cc12` (relative stereo) [Example 8, trans-2-[5-Cyanoindol-3-yl]-1-[N-(2-methoxybenzyl)aminomethyl]-cyclopropane], the Ki [1] is reported as 1 to 10 nM and the Ki [2] is reported as 100 to 1000 nM.
Compound `COc1cccc(CNC[C@@H]2C[C@H]2c2c[nH]c3ccc(C#N)cc23)c1` (relative stereo) [Example 9, trans-2-[5-Cyanoindol-3-yl]-1-[N-(3-methoxybenzyl)aminomethyl]-cyclopropane] has a Ki [1] of 1 to 10 nM and a Ki [2] of 100 to 1000 nM.
`COc1ccc(CNC[C@@H]2C[C@H]2c2c[nH]c3ccc(C#N)cc23)cc1` (relative stereo) [Example 10, trans-2-[5-Cyanoindol-3-yl]-1-[N-(4-methoxybenzyl)amnomethyl]-cyclopropane] gave a Ki [1] of 1 to 10 nM and a Ki [2] of 100 to 1000 nM.
Compound `N#Cc1ccc2[nH]cc([C@@H]3C[C@H]3CNCc3ccccc3F)c2c1` (relative stereo) [Example 11, trans-2-[5-Cyanoindol-3-yl]-1-[N-(2-fluorobenzyl)aminomethyl]-cyclopropane] has a Ki [1] of 1 to 10 nM and a Ki [2] of 100 to 1000 nM.
With `N#Cc1ccc2[nH]cc([C@@H]3C[C@H]3CNCCc3ccccc3F)c2c1` (relative stereo) [Example 17, trans-2-[5-Cyanoindol-3-yl]-1-[N-2-(2-fluorophenyl)ethylaminomethyl]-cyclopropane] the Ki [1] was 1 to 10 nM and the Ki [2] was 10 to 100 nM.
With `N#Cc1ccc2[nH]cc([C@@H]3C[C@H]3CNCCc3cccc(F)c3)c2c1` (relative stereo) [Example 18, trans-2-[5-Cyanoindol-3-yl]-1-[N-2-(3-fluorophenyl)ethylaminomethyl]-cyclopropane] the Ki [1] was 1 to 10 nM and the Ki [2] was 10 to 100 nM.
Compound `N#Cc1ccc2[nH]cc([C@@H]3C[C@H]3CNCCc3ccc(F)cc3)c2c1` (relative stereo) [Example 19, trans-2-[5-Cyanoindol-3-yl]-1-[N-2-(4-fluorophenyl)ethylaminomethyl]-cyclopropane] has a Ki [1] of 1 to 10 nM and a Ki [2] of 10 to 100 nM.
`N#Cc1ccc2[nH]cc([C@@H]3C[C@H]3CNCCc3cccnc3)c2c1` (relative stereo) [Example 20, trans-2-[5-Cyanoindol-3-yl]-1-[N-2-(3-pyridyl)ethylaminomethyl]-cyclopropane] was tested, and the Ki [1] was 1 to 10 nM and the Ki [2] was > 1000 nM.
For `N#Cc1ccc2[nH]cc([C@@H]3C[C@H]3CNCCc3c[nH]cn3)c2c1` (relative stereo) [Example 23, trans-2-[5-Cyanoindol-3-yl]-1-[N-2-(4-imidazolyl)ethylaminomethyl]-cyclopropane], the Ki [1] was 10 to 100 nM and the Ki [2] was 10 to 100 nM.
In the case of `N#Cc1ccc2[nH]cc([C@@H]3C[C@H]3CNCCc3cccs3)c2c1` (relative stereo) [Example 25], the Ki [1] is reported as 1 to 10 nM and the Ki [2] is reported as 100 to 1000 nM.
In the case of `N#Cc1ccc2[nH]cc([C@@H]3C[C@H]3CNCCc3c[nH]c4ccccc34)c2c1` (relative stereo) [Example 27, trans-2-[5-Cyanoindol-3-yl]-1-[N-2-(3-indolyl)ethylaminomethyl]-cyclopropane], the Ki [1] is reported as 1 to 10 nM and the Ki [2] is reported as 10 to 100 nM.
`N#Cc1ccc2[nH]cc([C@@H]3C[C@H]3CNC3CCCCC3)c2c1` (relative stereo) [Example 29, trans-2-[5-Cyanoindol-3-yl]-1-[N-cyclohexylaminomethyl]-cyclopropane] showed a Ki [1] of 10 to 100 nM and a Ki [2] of 10 to 100 nM.
With `N#Cc1ccc2[nH]cc([C@@H]3C[C@H]3CN3CCc4ccccc4C3)c2c1` (relative stereo) [Example 37, trans-2-[5-Cyanoindol-3-yl]-1-[1,2,3,4-tetrahydro-1H-isoquinolin-2-yl-methyl]-cyclopropane] the Ki [1] was 10 to 100 nM and the Ki [2] was 10 to 100 nM.
`CN(CCc1ccccc1)C[C@@H]1C[C@H]1c1c[nH]c2ccc(C#N)cc12` (relative stereo) [Example 39, trans-2-[5-Cyanoindol-3-yl]-1-[N,N-methyl-phenylethylaminomethyl]-cyclopropane] gave a Ki [1] of 1 to 10 nM and a Ki [2] of 10 to 100 nM.
For `N#Cc1ccc2[nH]cc([C@@H]3C[C@H]3CNCCc3ccccc3)c2c1` (relative stereo) [Example 40], the Ki [1] was 1 to 10 nM and the Ki [2] was 10 to 100 nM.
`COc1ccccc1CCNC[C@@H]1C[C@H]1c1c[nH]c2ccc(C#N)cc12` (relative stereo) [Example 41] showed a Ki [1] of 1 to 10 nM and a Ki [2] of 10 to 100 nM.
Work on `COc1cccc(CCNC[C@@H]2C[C@H]2c2c[nH]c3ccc(C#N)cc23)c1` (relative stereo) [Example 42] yielded a Ki [1] of 1 to 10 nM and a Ki [2] of 10 to 100 nM.
Work on `COc1ccc(CCNC[C@@H]2C[C@H]2c2c[nH]c3ccc(C#N)cc23)cc1` (relative stereo) [Example 43] yielded a Ki [1] of 1 to 10 nM and a Ki [2] of 10 to 100 nM.
`N#Cc1ccc2[nH]cc([C@@H]3C[C@H]3CNCCOc3ccccc3)c2c1` (relative stereo) [Example 44] gave a Ki [1] of 1 to 10 nM and a Ki [2] of 1 to 10 nM.
Compound `CCCNC[C@@H]1C[C@H]1c1c[nH]c2ccc(C#N)cc12` (relative stereo) [Example 45] has a Ki [1] of 10 to 100 nM and a Ki [2] of 100 to 1000 nM.
`CCN(CC)C[C@@H]1C[C@H]1c1c[nH]c2ccc(C#N)cc12` (relative stereo) [Example 48] showed a Ki [1] of 1 to 10 nM and a Ki [2] of 100 to 1000 nM.
`Fc1ccc2[nH]cc([C@@H]3C[C@H]3CNCc3ccccc3)c2c1` (relative stereo) [Example 49, trans-1-(N-Benzlyaminomethyl)-2-[5-fluoroindol-3-yl]-cyclopropane] showed a Ki [1] of 10 to 100 nM and a Ki [2] of 100 to 1000 nM.
With `Fc1ccc2[nH]cc([C@@H]3C[C@H]3CN3CCc4ccccc4C3)c2c1` (relative stereo) [Example 76, trans-1-[1,2,3,4-tetrahydro-1H-isoquinolin-2-yl-methyl]-2-[5-fluoroindol-3-yl]-cyclopropane] the Ki [1] was 10 to 100 nM and the Ki [2] was 10 to 100 nM.
Work on `CN(CCc1ccccc1)C[C@@H]1C[C@H]1c1c[nH]c2ccc(F)cc12` (relative stereo) [Example 78, trans-2-[5-Fluoroindol-3-yl]-1-[N,N-methyl-phenylethylaminomethyl]-cyclopropane] yielded a Ki [1] of 1 to 10 nM and a Ki [2] of 100 to 1000 nM.
In the case of `COc1ccccc1CCNC[C@@H]1C[C@H]1c1c[nH]c2ccc(F)cc12` (relative stereo) [Example 80], the Ki [1] is reported as 10 to 100 nM and the Ki [2] is reported as 10 to 100 nM.
Work on `COc1cccc(CCNC[C@@H]2C[C@H]2c2c[nH]c3ccc(F)cc23)c1` (relative stereo) [Example 81] yielded a Ki [1] of 10 to 100 nM and a Ki [2] of 10 to 100 nM.
For `COc1ccc(CCNC[C@@H]2C[C@H]2c2c[nH]c3ccc(F)cc23)cc1` (relative stereo) [Example 82], the Ki [1] was 10 to 100 nM and the Ki [2] was 10 to 100 nM.
Compound `Fc1ccc2[nH]cc([C@@H]3C[C@H]3CNCCOc3ccccc3)c2c1` (relative stereo) [Example 83] has a Ki [1] of 1 to 10 nM and a Ki [2] of 1 to 10 nM.
With `CCN(CC)C[C@@H]1C[C@H]1c1c[nH]c2ccc(F)cc12` (relative stereo) [Example 86] the Ki [1] was 10 to 100 nM and the Ki [2] was 100 to 1000 nM.
Compound `CCOC(=O)NCCN(C)C[C@@H]1C[C@H]1c1c[nH]c2ccc(C#N)cc12` (relative stereo) [Example 87, trans-2-[5-Cyanoindol-3-yl]-1-[N,N-methyl-2-amino(ethylcarbamoyl)ethylaminomethyl]-cyclopropane] has a Ki [1] of 10 to 100 nM and a Ki [2] of 100 to 1000 nM.
